According to PMC11417675, “Systematic Evaluation of Tyrosine Kinase Inhibitors as OATP1B1 Substrates Using a Competitive Counterflow Screen” (Cancer Research Communications, 2024):
Read-outs that look alike come from different tables or passages of the source.

How the values were obtained:
OATP1B1 [1] = target: T1, OATP1B1 (Homo sapiens, UniProt Q9Y6L6); experiment: Competitive counterflow (CCF) assay, efflux of preloaded [3H]-EβG in OATP1B1-overexpressing HEK293 cells; settings: for efflux of preloaded radiolabeled EβG induced by control substrates: 100 μmol/L, 30 min, after 1 h preload with 0.01 μmol/L [3H]-EβG; for hit in CCF assay (efflux >50% relative to EβG): at all three tested concentrations (1, 10, 100 μmol/L)
T1 sequence (Q9Y6L6 1-691): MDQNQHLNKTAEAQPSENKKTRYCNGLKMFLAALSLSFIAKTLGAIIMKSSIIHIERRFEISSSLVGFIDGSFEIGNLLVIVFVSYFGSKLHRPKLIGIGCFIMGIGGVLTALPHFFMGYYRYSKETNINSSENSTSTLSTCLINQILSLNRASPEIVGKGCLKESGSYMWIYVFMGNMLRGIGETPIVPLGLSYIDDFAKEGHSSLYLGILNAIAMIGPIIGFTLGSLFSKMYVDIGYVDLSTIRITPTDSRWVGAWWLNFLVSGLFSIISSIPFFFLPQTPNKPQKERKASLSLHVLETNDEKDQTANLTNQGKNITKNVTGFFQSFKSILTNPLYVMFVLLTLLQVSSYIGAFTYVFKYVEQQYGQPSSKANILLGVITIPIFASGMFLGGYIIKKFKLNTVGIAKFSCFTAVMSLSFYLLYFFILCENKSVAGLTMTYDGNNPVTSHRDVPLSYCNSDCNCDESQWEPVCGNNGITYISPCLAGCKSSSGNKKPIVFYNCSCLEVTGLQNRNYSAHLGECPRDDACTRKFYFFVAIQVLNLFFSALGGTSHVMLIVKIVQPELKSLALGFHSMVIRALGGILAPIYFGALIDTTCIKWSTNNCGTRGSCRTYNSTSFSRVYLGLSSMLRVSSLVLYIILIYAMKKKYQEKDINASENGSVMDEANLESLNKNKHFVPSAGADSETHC
Protocol: Cellular accumulation assays were performed in human embryonic kidney cells (HEK293; RRID: CVCL_0045) that were genetically engineered to overexpress human OATP1B1 ([23]–[25]). Cell lines were authenticated by Applied Biosystems AmpFISTR Identifiler testing with PCR amplification. […] All cells were used within passage 30 and verified to be Mycoplasma-free using the MycoAlert Mycoplasma Detection Kit (Lonza). At 80% to 90% confluency, cells were seeded on poly-D-lysine–coated 96-well plates 24 hours prior to the assay (2,500 cells/well), and expression of OATP1B1 was induced with 1 μg/mL doxycycline in phenol red–free DMEM.
The CCF assay uses OATP1B1-overexpressing HEK293 cells seeded and cultured as described above. During the study, cells were preincubated at room temperature (∼ 20°C) with 0.01 μmol/L EβG in prewarmed serum-free and phenol red–free DMEM for 1 hour. Following preincubation, each well was spiked with 1 μL of a stock solution containing 0.1, 1, or 10 mmol/L of positive control (EβG), negative control (glucose), test compound dissolved in Dimethylsulfoxide (DMSO), or DMSO only as a vehicle control. Following a 30-minute after incubation with a test compound, the assay was stopped by three consecutive washes with PBS at 4°C. Finally, cells were solubilized with 150 μL of 1% Triton X-100 in PBS for 2 hours at room temperature under constant agitation. A volume of 100 μL of cell lysate was transferred to clear-bottom 96-well isoplates, 200 μL of MicroScint-PS (PerkinElmer) scintillation fluid was added to each sample-containing well, and the plate was subsequently vortex-mixed for 30 seconds. Total radioactivity was determined on a MicroBeta microplate scintillation counter (PerkinElmer), and the resulting counts were then normalized to total protein as determined using a Pierce protein assay (Thermo Fisher Scientific).

OATP1B1 [2] = settings: cited from earlier work; for reported to inhibit OATP1B1: literature reports, ref not given
OATP2B1 = settings: General Comments; ref PMID#25165131; cited from earlier work
OATP1A2 = settings: General Comments; ref PMID#25165131; cited from earlier work
OCTN2 = test system: OCTN2; design: method as in PMID#25165131; settings: General Comments; ref PMID#25165131; cited from earlier work
VEGFR2 = target: T2, VEGFR2 (Homo sapiens, UniProt P35968); experiment: IP-based VEGFR kinase assay (ADP-Glo) in OATP1B1-overexpressing vs vector control HEK293 cells; type: cell-based; settings: 10 μmol/L, 1 h; OATP1B1-overexpressing cells compared with control cells not overexpressing OATP1B1
T2 construct: expressed in transfected cells; host or cells: HEK293 (OATP1B1-overexpressing or empty vector)
T2 sequence (P35968 20-1356, species assumed): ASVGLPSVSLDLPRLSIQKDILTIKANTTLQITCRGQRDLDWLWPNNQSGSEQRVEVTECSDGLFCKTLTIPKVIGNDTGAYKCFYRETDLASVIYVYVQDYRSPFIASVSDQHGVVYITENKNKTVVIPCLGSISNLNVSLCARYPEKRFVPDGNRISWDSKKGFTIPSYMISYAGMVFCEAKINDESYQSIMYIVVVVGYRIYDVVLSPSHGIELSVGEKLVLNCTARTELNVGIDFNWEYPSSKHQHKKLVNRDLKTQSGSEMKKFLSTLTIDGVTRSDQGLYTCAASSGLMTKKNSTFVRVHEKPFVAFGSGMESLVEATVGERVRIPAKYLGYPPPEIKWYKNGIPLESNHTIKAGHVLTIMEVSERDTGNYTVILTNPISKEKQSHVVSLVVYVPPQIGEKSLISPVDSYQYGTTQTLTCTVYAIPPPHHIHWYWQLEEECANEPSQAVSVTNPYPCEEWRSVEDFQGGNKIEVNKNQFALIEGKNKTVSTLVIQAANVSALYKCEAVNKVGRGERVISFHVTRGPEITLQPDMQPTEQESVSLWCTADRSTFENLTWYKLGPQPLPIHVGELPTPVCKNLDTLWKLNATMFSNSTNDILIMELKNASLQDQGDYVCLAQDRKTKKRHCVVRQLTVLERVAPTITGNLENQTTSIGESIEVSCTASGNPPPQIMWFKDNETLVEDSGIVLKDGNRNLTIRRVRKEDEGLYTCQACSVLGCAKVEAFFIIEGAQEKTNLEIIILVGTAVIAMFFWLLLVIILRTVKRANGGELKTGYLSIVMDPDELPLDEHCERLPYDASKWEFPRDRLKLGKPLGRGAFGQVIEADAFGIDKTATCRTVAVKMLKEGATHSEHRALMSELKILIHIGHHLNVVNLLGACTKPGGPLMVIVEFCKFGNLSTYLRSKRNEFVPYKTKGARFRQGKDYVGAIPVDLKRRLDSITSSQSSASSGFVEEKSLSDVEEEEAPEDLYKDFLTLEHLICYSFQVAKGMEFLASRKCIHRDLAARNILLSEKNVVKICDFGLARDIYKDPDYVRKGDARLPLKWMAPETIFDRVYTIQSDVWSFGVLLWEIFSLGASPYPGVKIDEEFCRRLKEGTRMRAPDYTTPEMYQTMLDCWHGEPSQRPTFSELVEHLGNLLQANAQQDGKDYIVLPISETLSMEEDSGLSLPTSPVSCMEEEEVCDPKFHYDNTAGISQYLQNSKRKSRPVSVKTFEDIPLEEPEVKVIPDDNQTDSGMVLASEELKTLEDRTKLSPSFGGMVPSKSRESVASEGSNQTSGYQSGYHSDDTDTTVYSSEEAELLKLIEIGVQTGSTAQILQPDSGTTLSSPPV

CNC(=O)c1ccccc1Sc1ccc2c(/C=C/c3ccccn3)n[nH]c2c1 [Axitinib]
pattern of efflux vs concentration in CCF assay (OATP1B1 [1]; 1, 10 and 100 μmol/L): solely at lower concentrations
previously claimed to be substrates of OATP1B1 (OATP1B1 [2]): substrates of OATP1B1

COc1cc2nccc(Oc3ccc(NC(=O)C4(C(=O)Nc5ccc(F)cc5)CC4)cc3)c2cc1OC [Cabozantinib]
pattern of efflux vs concentration in CCF assay (OATP1B1 [1]; 1, 10 and 100 μmol/L): solely at lower concentrations

Cc1cc(Nc2ncc(Cl)c(Nc3ccccc3S(=O)(=O)C(C)C)n2)c(OC(C)C)cc1C1CCNCC1 [Ceritinib]
pattern of efflux vs concentration in CCF assay (OATP1B1 [1]; 1, 10 and 100 μmol/L): clearly dependent on concentration

O=C(c1ccc(F)c(F)c1Nc1ccc(I)cc1F)N1CC(O)([C@@H]2CCCCN2)C1 [Cobimetinib]
pattern of efflux vs concentration in CCF assay (OATP1B1 [1]; 1, 10 and 100 μmol/L): clearly dependent on concentration

C[C@@H](Oc1cc(-c2cnn(C3CCNCC3)c2)cnc1N)c1c(Cl)ccc(F)c1Cl [Crizotinib]
pattern of efflux vs concentration in CCF assay (OATP1B1 [1]; 1, 10 and 100 μmol/L): clearly dependent on concentration
previously claimed to be substrates of OATP1B1 (OATP1B1 [2]): substrates of OATP1B1

CC(C)(C)c1nc(-c2cccc(NS(=O)(=O)c3c(F)cccc3F)c2F)c(-c2ccnc(N)n2)s1 [Dabrafenib]
pattern of efflux vs concentration in CCF assay (OATP1B1 [1]; 1, 10 and 100 μmol/L): solely at lower concentrations

Cc1nc(Nc2ncc(C(=O)Nc3c(C)cccc3Cl)s2)cc(N2CCN(CCO)CC2)n1 [Dasatinib]
pattern of efflux vs concentration in CCF assay (OATP1B1 [1]; 1, 10 and 100 μmol/L): solely at lower concentrations

C[C@]12CC[C@@H]3c4ccc(OS(=O)(=O)O)cc4CC[C@H]3[C@@H]1CCC2=O [E3S, estrone-3-sulfate]
efflux of preloaded radiolabeled EβG induced by control substrates (OATP1B1 [1]): induced significant efflux

COC(=O)N[C@@H](C)CNc1nccc(-c2cn(C(C)C)nc2-c2cc(Cl)cc(NS(C)(=O)=O)c2F)n1 [Encorafenib]
reported to inhibit OATP1B1 (OATP1B1 [2]): reported to inhibit OATP1B1

C[C@]12CC[C@@H]3c4ccc(O)cc4CC[C@H]3[C@@H]1CC[C@@H]2O[C@@H]1O[C@H](C(=O)O)[C@@H](O)[C@H](O)[C@H]1O [EβG, estradiol [6,7-^3H(N)]-17β-D-glucuronide]
efflux of preloaded radiolabeled EβG induced by control substrates (OATP1B1 [1]): induced significant efflux

COc1cc(Nc2ncc(F)c(Nc3ccc4c(n3)N(COP(=O)(O)O)C(=O)C(C)(C)O4)n2)cc(OC)c1OC [Fostamatinib]
hit in CCF assay (efflux >50% relative to EβG) (OATP1B1 [1]): hits

CS(=O)(=O)CCNCc1ccc(-c2ccc3ncnc(Nc4ccc(OCc5cccc(F)c5)c(Cl)c4)c3c2)o1 [Lapatinib]
pattern of efflux vs concentration in CCF assay (OATP1B1 [1]; 1, 10 and 100 μmol/L): solely at lower concentrations

CCOc1cc2ncc(C#N)c(Nc3ccc(OCc4ccccn4)c(Cl)c3)c2cc1NC(=O)/C=C/CN(C)C [Neratinib]
IC50 (OATP2B1): 2680 nM
IC50 (OATP1A2): 390 nM
OCTN2 inhibition (in words) (OCTN2): No inhibition of OATP1B1 and OCTN2 was observed at concentrations up to 10 µM

Cc1cn(-c2cc(NC(=O)c3ccc(C)c(Nc4nccc(-c5cccnc5)n4)c3)cc(C(F)(F)F)c2)cn1 [Nilotinib]
pattern of efflux vs concentration in CCF assay (OATP1B1 [1]; 1, 10 and 100 μmol/L): solely at lower concentrations

COC(=O)c1ccc2c(c1)NC(=O)/C2=C(\Nc1ccc(N(C)C(=O)CN2CCN(C)CC2)cc1)c1ccccc1 [Nintedanib]
pattern of efflux vs concentration in CCF assay (OATP1B1 [1]; 1, 10 and 100 μmol/L): clearly dependent on concentration

C=CC(=O)Nc1cc(Nc2nccc(-c3cn(C)c4ccccc34)n2)c(OC)cc1N(C)CCN(C)C [Osimertinib]
pattern of efflux vs concentration in CCF assay (OATP1B1 [1]; 1, 10 and 100 μmol/L): clearly dependent on concentration

Cc1ccc(Nc2nccc(N(C)c3ccc4c(C)n(C)nc4c3)n2)cc1S(N)(=O)=O [Pazopanib]
VEGFR kinase activity after pazopanib (VEGFR2): markedly reduced kinase activity
previously claimed to be substrates of OATP1B1 (OATP1B1 [2]): substrates of OATP1B1
reported to inhibit OATP1B1 (OATP1B1 [2]): reported to inhibit OATP1B1

FC(F)(F)c1ccc(CNc2ccc(Cc3c[nH]c4ncc(Cl)cc34)cn2)cn1 [Pexidartinib]
pattern of efflux vs concentration in CCF assay (OATP1B1 [1]; 1, 10 and 100 μmol/L): solely at lower concentrations

Cc1ccc(C(=O)Nc2ccc(CN3CCN(C)CC3)c(C(F)(F)F)c2)cc1C#Cc1cnc2cccnn12 [Ponatinib]
Interaction: Substrate OATP1B1 (OATP1B1 [2]): N
OATP1B1 inhibition (in words) (OATP1B1 [2]): Inhibits P-gp( IC50 =0.49uM), BCRP (IC50 = 0.013 µM). Did not inhibit OATP1B1, OATP1B3, OCT1, OCT2, OAT1, or OAT3. Not a substrate of OATP1B1, OATP1B3, or OCT1.
OATP1B1 substrate (in words) (OATP1B1 [2]): Inhibits P-gp( IC50 =0.49uM), BCRP (IC50 = 0.013 µM). Did not inhibit OATP1B1, OATP1B3, OCT1, OCT2, OAT1, or OAT3. Not a substrate of OATP1B1, OATP1B3, or OCT1.

CO[C@]1(C(=O)N[C@@H](C)c2ccc(-n3cc(F)cn3)nc2)CC[C@H](c2nc(C)cc(Nc3cc(C)[nH]n3)n2)CC1 [Pralsetinib]
pattern of efflux vs concentration in CCF assay (OATP1B1 [1]; 1, 10 and 100 μmol/L): solely at lower concentrations
reported to inhibit OATP1B1 (OATP1B1 [2]): reported to inhibit OATP1B1

Cn1cnc2c(F)c(Nc3ccc(Br)cc3Cl)c(C(=O)NOCCO)cc21 [Selumetinib]
pattern of efflux vs concentration in CCF assay (OATP1B1 [1]; 1, 10 and 100 μmol/L): solely at lower concentrations

CNC(=O)c1cc(Oc2ccc(NC(=O)Nc3ccc(Cl)c(C(F)(F)F)c3)cc2)ccn1 [Sorafenib]
hit in CCF assay (efflux >50% relative to EβG) (OATP1B1 [1]): hits
previously claimed to be substrates of OATP1B1 (OATP1B1 [2]): substrates of OATP1B1

CCN(CC)CCNC(=O)c1c(C)[nH]c(/C=C2\C(=O)Nc3ccc(F)cc32)c1C [Sunitinib]
pattern of efflux vs concentration in CCF assay (OATP1B1 [1]): clearly dependent on concentration

Cc1cc(Nc2ncnc3ccc(NC4=NC(C)(C)CO4)cc23)ccc1Oc1ccn2ncnc2c1 [Tucatinib]
pattern of efflux vs concentration in CCF assay (OATP1B1 [1]; 1, 10 and 100 μmol/L): solely at lower concentrations

COc1cc2c(Nc3ccc(Br)cc3F)ncnc2cc1OCC1CCN(C)CC1 [Vandetanib]
pattern of efflux vs concentration in CCF assay (OATP1B1 [1]; 1, 10 and 100 μmol/L): clearly dependent on concentration

OC[C@H]1OC(O)[C@H](O)[C@@H](O)[C@@H]1O (some centres unmarked) [glucose]
efflux of preloaded radiolabeled EβG induced by control substrates (OATP1B1 [1]): failed to induce efflux

CC[C@H](C)C(=O)O[C@H]1C[C@H](O)C=C2C=C[C@H](C)[C@H](CC[C@@H](O)C[C@@H](O)CC(=O)O)[C@H]21 [pravastatin]
efflux of preloaded radiolabeled EβG induced by control substrates (OATP1B1 [1]): induced significant efflux

CO[C@H]1/C=C/O[C@@]2(C)Oc3c(C)c(O)c4c(O)c(c(/C=N/N5CCN(C)CC5)c(O)c4c3C2=O)NC(=O)/C(C)=C\C=C\[C@H](C)[C@H](O)[C@@H](C)[C@@H](O)[C@@H](C)[C@H](OC(C)=O)[C@@H]1C [rifampin]
efflux of preloaded radiolabeled EβG induced by control substrates (OATP1B1 [1]): induced significant efflux
